Patent US20250127906A1, “SMALL-MOLECULE DEGRADERS OF CDK8 AND CDK19” (University of South Carolina, priority 2021, published 2025)

Columns and labels:
[1] = test system: pS727 STAT1 and total STAT1; assay: pS727 STAT1 and total STAT1 in CT26 tumors in Balb/c mice; type: in vivo; conditions: oral gavage 20 mg/kg, 2, 8 or 24 hrs after dosing
Experimental: (§1) CT26 cells were injected subcutaneously into syngeneic Balb/c female mice and allowed to grow to 150˜200 mm^3. Tumor-bearing mice then received PROTACs IA7882 or IA7886 by oral gavage at 20 mg/kg in 30% propylene glycol/70% PEG-400 vehicle. Tumors were collected 2, 8 or 24 hrs after dosing and used to measure protein levels of CDK8, pS727 STAT1 and total STAT1 (by western blotting) and mRNA expression of CCL12, a gene that is inhibited by different CDK8/19 inhibitors in CT26 tumors in vivo (by QPCR).

CCL12 = CCL12 mRNA expression in CT26 tumors in Balb/c mice (QPCR); type: in vivo; conditions: oral gavage 20 mg/kg, 2, 8 or 24 hrs after dosing
Experimental: as §1

[2] = Serum drug concentrations in CD-1 mice (LCMSMS); type: in vivo; conditions: female CD-1 mice, i.p. 15 mg/kg, 15 min and 1 hr
Experimental: For preliminary evaluation of the bioavailability of the PROTACs, IA7882 and IA7886 were administered to female CD-1 mice via intraperitoneal (i.p.) injection at the dose of 15 mg/kg. Drug concentrations were measured by LCMSMS analysis of serum samples collected at 15 min and 1 hr time point.

CDK8 [3] = biological target: T1, CDK8 (Homo sapiens, UniProt P49336); assay: CDK8 degradation in Loucy T-cell leukemia cells lacking Cyclin C; type: cell-based; parameters: endogenous in cells; host or cells: Loucy; conditions: Loucy cells (lacking CCNC), 24 hr treatment
Text: (§2) This cell line, however, is unique in lacking Cyclin C (CCNC), the binding partner of CDK8/19. To test if the absence of CDK8-bound CCNC was responsible for the loss of IA7843 CDK8-degrading activity, we have tested the effect of IA7843 on a derivative of HEK-293cells with CRISPR-mediated knockout of CCNC.
Target sequence in this assay (P49336 whole entry): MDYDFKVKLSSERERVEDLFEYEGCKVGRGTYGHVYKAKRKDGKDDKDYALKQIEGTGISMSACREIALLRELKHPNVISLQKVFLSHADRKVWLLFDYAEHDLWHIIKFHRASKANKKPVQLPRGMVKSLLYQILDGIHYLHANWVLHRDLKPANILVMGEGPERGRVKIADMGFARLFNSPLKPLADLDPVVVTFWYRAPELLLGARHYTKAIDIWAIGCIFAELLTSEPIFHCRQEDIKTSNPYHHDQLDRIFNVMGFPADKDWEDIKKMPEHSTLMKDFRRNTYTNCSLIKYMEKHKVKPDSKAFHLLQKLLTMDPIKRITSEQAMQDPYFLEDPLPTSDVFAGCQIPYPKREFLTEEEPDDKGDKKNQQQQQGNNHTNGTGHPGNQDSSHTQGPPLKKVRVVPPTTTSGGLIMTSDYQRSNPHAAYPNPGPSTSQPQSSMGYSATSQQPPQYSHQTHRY

CDK19 [4] = biological target: T2, CDK19 (Homo sapiens, UniProt Q9BWU1); assay: CDK19 degradation in Loucy T-cell leukemia cells lacking Cyclin C; type: cell-based; parameters: endogenous in cells; host or cells: Loucy; conditions: Loucy cells (lacking CCNC), 24 hr treatment
Text: as §2
Target sequence in this assay (Q9BWU1 whole entry): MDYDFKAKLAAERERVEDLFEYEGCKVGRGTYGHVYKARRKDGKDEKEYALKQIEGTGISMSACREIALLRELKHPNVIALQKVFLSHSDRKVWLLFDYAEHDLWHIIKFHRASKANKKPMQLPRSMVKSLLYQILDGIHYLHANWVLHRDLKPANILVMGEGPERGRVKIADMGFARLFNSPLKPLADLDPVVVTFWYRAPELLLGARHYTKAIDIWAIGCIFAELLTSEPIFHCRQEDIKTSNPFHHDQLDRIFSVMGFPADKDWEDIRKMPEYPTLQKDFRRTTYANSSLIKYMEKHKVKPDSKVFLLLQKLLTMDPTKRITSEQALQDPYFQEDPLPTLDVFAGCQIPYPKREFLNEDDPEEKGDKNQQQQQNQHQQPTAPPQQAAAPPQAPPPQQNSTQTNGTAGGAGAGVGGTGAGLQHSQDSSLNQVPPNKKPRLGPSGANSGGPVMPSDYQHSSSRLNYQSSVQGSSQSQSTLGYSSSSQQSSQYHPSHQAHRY

CDK8 [5] = biological target: T1, CDK8; assay: CDK8 degradation in HEK-293 cells (Western blot, normalized by GAPDH); type: cell-based; parameters: endogenous in cells; host or cells: HEK-293; conditions: HEK-293 cells
In short: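 HEK-293 cells were treated for 24 h with or without compound, at 1 μM or 0.3 μM for single-point testing. RIPA lysates were immunoblotted for CDK8, and densitometry gave levels normalized to GAPDH. DC50 is the concentration that reduces CDK8 to half its level in untreated cells.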
Target sequence in this assay (P49336 whole entry): as the sequence (P49336 whole entry) above
Target sequence in this assay (P24863 whole entry partner): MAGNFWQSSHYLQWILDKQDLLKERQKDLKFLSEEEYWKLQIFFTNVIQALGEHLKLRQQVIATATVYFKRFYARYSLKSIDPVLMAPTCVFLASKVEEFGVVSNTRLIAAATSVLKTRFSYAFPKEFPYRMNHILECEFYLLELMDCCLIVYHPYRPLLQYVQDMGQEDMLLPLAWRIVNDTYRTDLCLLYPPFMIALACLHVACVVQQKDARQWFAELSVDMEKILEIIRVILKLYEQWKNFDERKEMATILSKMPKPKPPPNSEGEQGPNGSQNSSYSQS

CDK8 [6] = biological target: T3, CDK8 (Mus musculus, UniProt Q8R3L8); assay: CDK8 protein level in CT26 tumors in Balb/c mice; type: in vivo; parameters: from tissue; host or cells: subcutaneous CT26 tumours in Balb/c female mice; conditions: oral gavage 20 mg/kg, 2, 8 or 24 hrs after dosing
T3 sequence (Q8R3L8 1-464): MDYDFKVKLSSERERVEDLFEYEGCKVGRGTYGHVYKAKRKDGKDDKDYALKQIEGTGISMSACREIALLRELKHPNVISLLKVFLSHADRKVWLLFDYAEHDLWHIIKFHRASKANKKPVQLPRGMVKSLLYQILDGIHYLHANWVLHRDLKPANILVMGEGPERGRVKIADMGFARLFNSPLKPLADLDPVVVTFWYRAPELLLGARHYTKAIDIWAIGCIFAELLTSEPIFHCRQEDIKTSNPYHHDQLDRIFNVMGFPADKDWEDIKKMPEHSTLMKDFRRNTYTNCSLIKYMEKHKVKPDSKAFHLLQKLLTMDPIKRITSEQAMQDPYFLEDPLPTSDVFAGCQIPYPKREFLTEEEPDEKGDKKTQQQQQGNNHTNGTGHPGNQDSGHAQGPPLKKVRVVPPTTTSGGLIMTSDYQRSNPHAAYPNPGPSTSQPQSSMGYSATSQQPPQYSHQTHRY
T3 sequence (Q62447 1-283 partner): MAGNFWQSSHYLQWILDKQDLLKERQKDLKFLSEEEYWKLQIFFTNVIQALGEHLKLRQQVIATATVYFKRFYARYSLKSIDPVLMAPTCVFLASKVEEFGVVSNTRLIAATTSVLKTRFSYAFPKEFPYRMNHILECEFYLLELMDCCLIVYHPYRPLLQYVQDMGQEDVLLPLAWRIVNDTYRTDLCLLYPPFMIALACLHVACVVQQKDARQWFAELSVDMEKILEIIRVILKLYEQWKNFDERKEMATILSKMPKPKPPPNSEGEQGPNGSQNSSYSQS
Experimental: as §1

CDK19 [7] = biological target: T2, CDK19; assay: CDK19 degradation in HEK-293 cells (Western blot); type: cell-based; parameters: PROTACs on CDK8 and CDK19 degradation in HEK-293cells; endogenous in cells; host or cells: HEK-293; conditions: concentration degrading CDK19 to half of level in untreated cells
Text: Furthermore, the degradation of both CDK8 and CDK19 by the PROTACs is also seen to decrease the levels of their binding partner cyclin C (CCNC) (FIG. 2B, D, E), which is known to be protected from proteolytic degradation by its interaction with CDK8 (Barette et al., 2001).
FIGS. 2F and 2G show the effects of different concentrations of potent Senexin C- and BI-1347-based PROTACs on CDK8 and CDK19 degradation in HEK-293cells. Based on these assays, we calculated DC50 values that correspond to PROTAC concentrations inducing degradation of CDK8 and CDK19 to the half of protein level in untreated cells. The corresponding CDK8 DC50 values were 46 nM for IA7843, 6.6 nM for IA7882 and 2.8 nM for IA7886, and CDK19 DC50 values were 1 μM for IA7843, 25 nM for IA7882 and 10 nM for IA7886.
Target sequence in this assay (Q9BWU1 whole entry): as the sequence (Q9BWU1 whole entry) above
Target sequence in this assay (P24863 whole entry partner): as the sequence (P24863 whole entry partner) above

CDK8 [8] = biological target: T1, CDK8; assay: CDK8 degradation in HEK-293 cells with CRISPR knockout of CCNC; type: cell-based; parameters: a derivative of HEK-293cells with CRISPR-mediated knockout of CCNC; endogenous in cells; host or cells: HEK-293 with CRISPR knockout of CCNC; conditions: HEK-293 CCNC-knockout cells, 24 hr treatment
Text: as §2
Target sequence in this assay (P49336 whole entry): as the sequence (P49336 whole entry) above

CDK19 [9] = biological target: T2, CDK19; assay: CDK19 degradation in HEK-293 cells with CRISPR knockout of CCNC; type: cell-based; parameters: a derivative of HEK-293cells with CRISPR-mediated knockout of CCNC; endogenous in cells; host or cells: HEK-293 with CRISPR knockout of CCNC; conditions: HEK-293 CCNC-knockout cells, 24 hr treatment
Text: as §2
Target sequence in this assay (Q9BWU1 whole entry): as the sequence (Q9BWU1 whole entry) above

SMILES: O=C1CCC(N2C(=O)c3cccc(NCCOCCOCCOCCOCCC(=O)N4CCN(C(=O)Cn5cc(-c6ccc(-c7cncc8ccccc78)cc6)cn5)CC4)c3C2=O)C(=O)N1 (centres unmarked) [IA7882, 2-(2,6-dioxo-3-piperidyl)-4-[2-[2-[2-[2-[3-[4-[2-[4-[4-(4-isoquinolyl)phenyl]pyrazol-1-yl]acetyl]piperazin-1-yl]-3-oxo-propoxy]ethoxy]ethoxy]ethoxy]ethylamino]isoindoline-1,3-dione]
- pS727 STAT1 and total STAT1 in tumors [1]: decreased in most of the tumors collected 2 hrs or 8 hrs after dosing
- levels of CCL12 mRNA in tumors (CCL12): decreased in tumors treated with IA7882 or IA7886 2 hrs or 8 hrs (but not 24 hrs) after dosing
- serum drug concentrations [2]: readily measurable and were higher for IA7882 than for IA7886
- CDK8 degradation (in words) (CDK8 [3]): efficiently degraded CDK8 and CDK19
- CDK19 degradation (in words) (CDK19 [4]): efficiently degraded CDK8 and CDK19
- % CDK8 remaining (CDK8 [5]; 24 hours, tested at 1 μM): 12%
- DC50 (CDK8 [5]; concentration degrading CDK8 to half of level in untreated cells): 6.6 nM
- CDK8 levels in tumor extracts (CDK8 [6]): decreased in most of the tumor extracts collected 2 hrs or 8 hrs after dosing
- DC50 (CDK19 [7]): 25 nM
- CDK8 degradation (in words) (CDK8 [8]): efficiently degraded CDK8 and CDK19
- CDK19 degradation (in words) (CDK19 [9]): efficiently degraded CDK8 and CDK19
